Data: US12433903B2 (priority 2021, dated 2025)

Legend:
Assay type in all cases: in vitro ADME
[1] = tested on: cryopreserved hepatocytes; assay: Hepatocyte stability and metabolite profiling, rat; details: rat hepatocyte samples, 20 and 120 minute
Procedure: (§1) The objective of this study was to investigate the stability of the test compound, CBG, in human, rat, dog, mouse, monkey and minipig cryopreserved hepatocytes. Follow-on metabolite profiling was performed.
(§2) CBG was incubated up to 2 hr with cryopreserved hepatocytes. Cryopreserved hepatocytes in suspension were added to test compound in supplemented media following pre-incubation to initiate the reaction and the reactions were stopped by organic solvent at the appropriate time points. The termination plates were centrifuged and sample supernatants were analysed using Cyprotex generic LC MS/MS conditions to generate intrinsic clearance values for CBG. Two control compounds for each species were included in the assay and if the values for these compounds were not within the specified limits the results were rejected and the experiment repeated.
(§3) Following the hepatocyte stability assay the samples were 59 tilized for metabolite profiling using suitable high-resolution LC-MS/MS conditions. The 40 and 60 minute human samples, 20 and 120 minute rat samples, 10 and 20 minute dog and monkey samples, 20 and 60 minute mouse samples, and 40 and 120 minute minipig samples were compared against the 0 minute control sample to establish which and how many metabolites were formed. […]
(§4) The areas and percentages reported for the parent and metabolites were calculated using the XIC data. […]

[2] = tested on: cryopreserved hepatocytes; assay: Hepatocyte stability and metabolite profiling, dog; details: dog hepatocyte samples, 10 and 20 minute
Procedure: as §1, §2, §3, §4

[3] = tested on: cryopreserved hepatocytes; assay: Hepatocyte stability and metabolite profiling, monkey; details: monkey hepatocyte samples, 10 and 20 minute
Procedure: as §1, §2, §3, §4

[4] = tested on: cryopreserved hepatocytes; assay: Hepatocyte stability and metabolite profiling, minipig; details: minipig hepatocyte samples, 40 and 120 minute
Procedure: as §1, §2, §3, §4

[5] = molecular target: T1, rUGT2B7 (Homo sapiens, UniProt P16662); assay: Inhibition of CBG glucuronidation by Compound 1, rUGT2B7
T1 sequence (P16662 24-529): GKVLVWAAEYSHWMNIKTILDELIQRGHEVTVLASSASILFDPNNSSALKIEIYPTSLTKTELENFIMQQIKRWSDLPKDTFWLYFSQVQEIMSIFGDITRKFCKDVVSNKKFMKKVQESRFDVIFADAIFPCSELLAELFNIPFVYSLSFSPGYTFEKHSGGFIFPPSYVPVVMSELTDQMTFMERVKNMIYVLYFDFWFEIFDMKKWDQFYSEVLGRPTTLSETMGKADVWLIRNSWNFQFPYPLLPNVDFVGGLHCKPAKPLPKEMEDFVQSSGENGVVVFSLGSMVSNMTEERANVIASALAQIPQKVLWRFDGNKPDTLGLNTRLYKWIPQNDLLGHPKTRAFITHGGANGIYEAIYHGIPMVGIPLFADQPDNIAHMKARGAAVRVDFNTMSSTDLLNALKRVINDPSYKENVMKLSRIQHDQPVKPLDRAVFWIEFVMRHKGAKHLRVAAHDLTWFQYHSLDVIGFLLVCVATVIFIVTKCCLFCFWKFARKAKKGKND
Procedure: The purpose of this experiment was to determine if Compound 1 can inhibit the glucuronidation of CBG, as both are substrates for the two major isoforms responsible for CBG glucuronidation.
The ability of Compound 1 to inhibit the metabolism of CBG by UGT1A9 and UGT2B7 enzymes was investigated to ascertain the IC50 values for direct inhibition. The incubation conditions (substrate concentration, incubation time and protein concentration) were determined in Part 2 of the protocol such that CBG metabolism remains near initial rate conditions (e.g., 20-30% substrate loss).
Preliminary experiments were conducted in Part I of the protocol, first to establish the HPLC/MS/MS bioanalytical methods for CBG and CBG glucuronide. […] The second set of preliminary experiments (Part 2), as mentioned, were conducted to optimize the incubation conditions as described above. Incubations (at 37° C.) contained Tris-HCl buffer (100 mM, pH 7.7), MgCl2 (10 mM), EDTA (1 mM, pH 7.4) and UDP-glucuronic acid (UDPGA, 10 mM). CBG was added to each incubation in DMSO such that the final percent of DMSO was 1% v/v, or less. Reactions were terminated by the addition of an equal volume of stop reagent, acetonitrile containing an internal standard. The samples were centrifuged (e.g., 920 RCF for 10 minutes at 10° C.), and the supernatant fractions were analyzed by LC-MS/MS to determine the amount of CBG remaining and formation of one metabolite (CBG glucuronide).
To examine its ability to act as a direct inhibitor of the above listed enzymes, Compound 1 was be added to recombinant human UGT enzyme together with CBG. Reactions were initiated with UDPGA and were carried out in duplicate. For all assays, reactions were terminated by the addition of acetonitrile with or without 2% v/v formic acid, including the internal standard.
Authentic metabolite reference standards were used for quantitation of the probe substrate metabolites and as internal standards. Based on the information obtained in the Part 2 experiments, the following table summarizes the experiments performed, assessing the inhibitory effects of Compound 1 was conducted as follows:
The amounts of CBG present at the end of the incubation periods was determined. For inhibition to have occurred, the amounts of CBG present at the end of the incubation period needed to increase, and the amounts of glucuronide formed needed to decrease.

[6] = 10 μM CBG + 0.01 μM Compound 1, 5 min
[7] = 10 μM CBG + 0.03 μM Compound 1, 5 min
[8] = 10 μM CBG + 0.1 μM Compound 1, 5 min
[9] = 10 μM CBG + 0.3 μM Compound 1, 5 min
[10] = 10 μM CBG + 1 μM Compound 1, 5 min
[11] = 10 μM CBG + 3 μM Compound 1, 5 min
[12] = 10 μM CBG + 10 μM Compound 1, 5 min

CCCCCc1cc(O)c(C/C=C(\C)CCC=C(C)C)c(O)c1 [CBG, cannabigerol]
metabolites observed (number) [1]: eight | metabolites observed (number) [2]: three | metabolites observed (number) [3]: four | metabolites observed (number) [4]: four

CCCCCc1cc(O)c(C/C=C(\C)CCC=C(C)C)c(OC)c1 [Compound 1, (E)-2-(3,7-dimethylocta-2,6-dien-1-yl)-3-methoxy-5-pentylphenol]
CBG detected (CBG loss) [5, 6]: 1370 pmol | CBG detected, Percent of control [5, 6]: 103 | CBG glucuronide formed [5, 6]: 260000 area ratio | CBG glucuronide formed, Percent of control [5, 6]: 104 | CBG detected (CBG loss) [5, 7]: 1460 pmol | CBG detected, Percent of control [5, 7]: 109 | CBG glucuronide formed, Percent of control [5, 7]: 101 | CBG detected (CBG loss) [5, 8]: 1410 pmol | CBG detected, Percent of control [5, 8]: 106 | CBG glucuronide formed, Percent of control [5, 8]: 103 | CBG detected (CBG loss) [5, 9]: 1450 pmol | CBG detected, Percent of control [5, 9]: 109 | CBG glucuronide formed, Percent of control [5, 9]: 105 | CBG detected (CBG loss) [5, 10]: 1460 pmol | CBG detected, Percent of control [5, 10]: 109 | CBG glucuronide formed, Percent of control [5, 10]: 102 | CBG detected (CBG loss) [5, 11]: 1440 pmol | CBG detected, Percent of control [5, 11]: 108 | CBG glucuronide formed, Percent of control [5, 11]: 101 | CBG detected (CBG loss) [5, 12]: 1470 pmol | CBG detected, Percent of control [5, 12]: 111 | CBG glucuronide formed, Percent of control [5, 12]: 96.0 | metabolism of CBG in the presence of Compound 1 (in words) ([5]; 0.01-10 μM Compound 1, CBG disappearance or glucuronide formation): essentially unchanged
